Experiments:
Design in all cases: purchased Sigma Aldrich
[1] = target: T1, glucose oxidase (GOx) (Aspergillus niger, UniProt P13006); assay: GOx-DCL in presence of DTNB; settings: large excess of DTNB
Protocol: The equilibration of the DCL was completed after 24 h (Fig. 9) and the oligomers were identified by HPLC-MS (Supplementary Figs. 4–20). The precise composition of the DCL (with and without GOx), was assessed by measuring the relative peak area (RPA). The normalized change of RPA was used to quantify the protein influence in the final DCL showing the amplification of the dimer of compound 4, that is (4)2 (Fig. 9b). Control experiments were set up to verify that the amplification of the dimer was not due to unspecific binding. Firstly the GOx was replaced by the bovine serum albumin (BSA). A stability study of BSA under the DCL conditions was performed using a fluorescence technique confirming the BSA stability in the DCL experiment (Supplementary Fig. 48)[50].
% v/v DMSO (266 µL). The DCL was stabilized for 24 hours at 6 °C. Then, BS A was removed by ultracentrifugation thr ough an Amicon ultra -filter (10 KDa) and the solution was analyzed by […]
GOx-DCL in presence of DTNB.
GOx- directed DCL: Dithiols 1-2 […]
To elucídate the type of inhibitor, Lineweaver-Burk plot were performed. GOx activity was measured at increasing concentration s of glucose (0.2 mM to 4 mM) and in presence and absence of (4)2 and DTNB. According to fluorescence s tudies and their Kd’ values, the concentration of the inhibitors were chosen. […]
IC50 was determined using different concentrations of inhibitors DTNB and (4)2. […]

[2] = target: T1, glucose oxidase (GOx); assay: GOx activity assay, glucose oxidase-horseradish peroxidase coupled system with o-dianisidine; format: biochemical; settings: for 1/Vo: Lineweaver-Burk;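 for GOx activity: GOx activity followed by o-dianisidine absorbance at 500 nm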
[3] = target: T1, glucose oxidase (GOx); assay: Tryptophan fluorescence emission binding experiments with GOx; settings: for Emission Average / Normalized Fluorescence: Supplementary Figure 52 c

T1 sequence (P13006 17-605): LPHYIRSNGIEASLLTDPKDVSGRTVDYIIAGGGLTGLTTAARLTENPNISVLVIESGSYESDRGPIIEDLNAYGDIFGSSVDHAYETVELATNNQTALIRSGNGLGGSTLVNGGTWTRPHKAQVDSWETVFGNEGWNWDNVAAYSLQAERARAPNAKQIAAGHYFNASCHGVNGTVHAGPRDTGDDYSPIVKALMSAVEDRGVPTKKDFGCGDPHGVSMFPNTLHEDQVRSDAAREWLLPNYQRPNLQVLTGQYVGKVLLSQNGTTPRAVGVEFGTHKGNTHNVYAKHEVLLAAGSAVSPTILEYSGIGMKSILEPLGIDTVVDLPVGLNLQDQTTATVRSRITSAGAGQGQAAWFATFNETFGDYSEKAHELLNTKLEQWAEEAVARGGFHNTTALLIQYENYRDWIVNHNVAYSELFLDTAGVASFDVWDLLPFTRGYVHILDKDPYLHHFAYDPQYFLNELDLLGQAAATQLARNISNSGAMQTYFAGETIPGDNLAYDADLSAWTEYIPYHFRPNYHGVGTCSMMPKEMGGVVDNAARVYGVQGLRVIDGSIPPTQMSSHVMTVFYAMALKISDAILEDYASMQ

**Q.** How did the “effect on GOx-directed DCL” value [1] turn out when `O=C(O)c1cc(SSc2ccc([N+](=O)[O-])c(C(=O)O)c2)ccc1[N+](=O)[O-]` [DTNB, 5,5′-dithiobis-2-nitrobenzoic acid, reference compound] was run?
**A.** prevented the amplification of any other ligands except DTNB

**Q.** What about the “GOx Activity” value ([2]; IC50 data, inhibitor 1.4 nM, glucose 10 mM) of the same molecule?
**A.** 0.0674 min⁻¹

**Q.** And the “GOx Activity” value ([2]; IC50 data, inhibitor 3.5 nM, glucose 10 mM)?
**A.** 0.0701 min⁻¹

**Q.** What about the “GOx Activity” value ([2]; IC50 data, inhibitor 7.0 nM, glucose 10 mM) of the same molecule?
**A.** 0.063 min⁻¹

**Q.** And the “GOx Activity” value ([2]; IC50 data, inhibitor 14.0 nM, glucose 10 mM)?
**A.** 0.0639 min⁻¹

**Q.** And the “GOx Activity” value ([2]; IC50 data, inhibitor 70.0 nM, glucose 10 mM)?
**A.** 0.0603 min⁻¹

**Q.** What about the “GOx Activity” value ([2]; IC50 data, inhibitor 140.0 nM, glucose 10 mM) of the same molecule?
**A.** 0.0454 min⁻¹

**Q.** And the “GOx Activity” value ([2]; IC50 data, inhibitor 700.0 nM, glucose 10 mM)?
**A.** 0.0399 min⁻¹

**Q.** And the “GOx Activity” value ([2]; IC50 data, inhibitor 1400.0 nM, glucose 10 mM)?
**A.** 0.0322 min⁻¹

**Q.** And the “GOx Activity” value ([2]; IC50 data, inhibitor 1428571.0 nM, glucose 10 mM)?
**A.** 0.0388 min⁻¹

**Q.** And the “GOx Activity” value ([2]; Ki data, inhibitor 3,5·10^-8 M, [Glucose] 0.0002 M)?
**A.** 0.0024 min⁻¹

**Q.** And the “GOx Activity” value ([2]; Ki data, inhibitor 3,5·10^-8 M, [Glucose] 0.0007 M)?
**A.** 0.0073 min⁻¹

**Q.** And the “GOx Activity” value ([2]; Ki data, inhibitor 3,5·10^-8 M, [Glucose] 0.0014 M)?
**A.** 0.013 min⁻¹

**Q.** And the “GOx Activity” value ([2]; Ki data, inhibitor 3,5·10^-8 M, [Glucose] 0.0028 M)?
**A.** 0.0254 min⁻¹

**Q.** What about the “GOx Activity” value ([2]; Ki data, inhibitor 3,5·10^-8 M, [Glucose] 0.004 M) of the same molecule?
**A.** 0.0298 min⁻¹

**Q.** What about the “GOx Activity” value ([2]; Ki data, inhibitor 7·10^-8 M, [Glucose] 0.0002 M) of the same molecule?
**A.** 0.0022 min⁻¹

**Q.** What about the “GOx Activity” value ([2]; Ki data, inhibitor 7·10^-8 M, [Glucose] 0.0007 M) of the same molecule?
**A.** 0.0054 min⁻¹

**Q.** What about the “GOx Activity” value ([2]; Ki data, inhibitor 7·10^-8 M, [Glucose] 0.0014 M) of the same molecule?
**A.** 0.0121 min⁻¹

**Q.** What about the “GOx Activity” value ([2]; Ki data, inhibitor 7·10^-8 M, [Glucose] 0.0028 M) of the same molecule?
**A.** 0.0197 min⁻¹

**Q.** And the “GOx Activity” value ([2]; Ki data, inhibitor 7·10^-8 M, [Glucose] 0.004 M)?
**A.** 0.0279 min⁻¹

**Q.** What about the “GOx Activity” value ([2]; Ki data, inhibitor 14·10^-8 M, [Glucose] 0.0002 M) of the same molecule?
**A.** 0.0008 min⁻¹

**Q.** What about the “GOx Activity” value ([2]; Ki data, inhibitor 14·10^-8 M, [Glucose] 0.0007 M) of the same molecule?
**A.** 0.004 min⁻¹

**Q.** And the “GOx Activity” value ([2]; Ki data, inhibitor 14·10^-8 M, [Glucose] 0.0014 M)?
**A.** 0.0074 min⁻¹

**Q.** And the “GOx Activity” value ([2]; Ki data, inhibitor 14·10^-8 M, [Glucose] 0.0028 M)?
**A.** 0.015 min⁻¹

**Q.** What about the “GOx Activity” value ([2]; Ki data, inhibitor 14·10^-8 M, [Glucose] 0.004 M) of the same molecule?
**A.** 0.0236 min⁻¹

**Q.** What about the 1/Vo ([2]; inhibitor 0,07 µM, 1/[glucose] 250 M-1) of the same molecule?
**A.** 32.9749 min

**Q.** What about the 1/Vo ([2]; inhibitor 0,07 µM, 1/[glucose] 357 M-1) of the same molecule?
**A.** 56.0355 min

**Q.** What about the 1/Vo ([2]; inhibitor 0,07 µM, 1/[glucose] 714 M-1) of the same molecule?
**A.** 65.6495 min

**Q.** What about the 1/Vo ([2]; inhibitor 0,07 µM, 1/[glucose] 1430 M-1) of the same molecule?
**A.** 135.55 min

**Q.** What about the 1/Vo ([2]; inhibitor 0,07 µM, 1/[glucose] 5000 M-1) of the same molecule?
**A.** 532.407 min

**Q.** And the 1/Vo ([2]; inhibitor 0,14 µM, 1/[glucose] 250 M-1)?
**A.** 37.1744 min

**Q.** What about the 1/Vo ([2]; inhibitor 0,14 µM, 1/[glucose] 357 M-1) of the same molecule?
**A.** 57.2815 min

**Q.** What about the 1/Vo ([2]; inhibitor 0,14 µM, 1/[glucose] 714 M-1) of the same molecule?
**A.** 76.102 min

**Q.** What about the 1/Vo ([2]; inhibitor 0,14 µM, 1/[glucose] 1430 M-1) of the same molecule?
**A.** 148 min

**Q.** And the 1/Vo ([2]; inhibitor 0,14 µM, 1/[glucose] 5000 M-1)?
**A.** 505.051 min

**Q.** What about the “Inhibitor Type” value ([2]; Lineweaver–Burk plots) of the same molecule?
**A.** non-competitive

**Q.** What about the Ki ([2]; non-competitive inhibition model, 37 °C, sodium acetate buffer pH 5.1) of the same molecule?
**A.** 0.2 ± 0.02 µM

**Q.** What about the “Emission Average” value ([3]; [DTNB] 8 uM) of the same molecule?
**A.** 1800741

**Q.** And the “Normalized Fluorescence” value ([3]; [DTNB] 8 uM)?
**A.** 0.1466

**Q.** What about the “Emission Average” value ([3]; [DTNB] 40 uM) of the same molecule?
**A.** 955958

**Q.** And the “Normalized Fluorescence” value ([3]; [DTNB] 40 uM)?
**A.** 0.5470

**Q.** And the “Emission Average” value ([3]; [DTNB] 80 uM)?
**A.** 361199

**Q.** What about the “Normalized Fluorescence” value ([3]; [DTNB] 80 uM) of the same molecule?
**A.** 0.8288

**Q.** What about the “Emission Average” value ([3]; [DTNB] 200 uM) of the same molecule?
**A.** 25171.8

**Q.** And the “Normalized Fluorescence” value ([3]; [DTNB] 200 uM)?
**A.** 0.9881

**Q.** And the “Emission Average” value ([3]; [DTNB] 400 uM)?
**A.** 521.51

**Q.** And the “Normalized Fluorescence” value ([3]; [DTNB] 400 uM)?
**A.** 0.9998

**Q.** What about the Kd ([3]; apparent dissociation constant, GOx 0.8 µM, Tris pH 7.8, 5% DMSO, 10 °C, read-out: Kd') of the same molecule?
**A.** 64 ± 2 µM
